Target: T1, glucocerebrosidase (Gcase) (Homo sapiens, UniProt P04062)
T1 construct: micellar solution containing 10 nM GCase and 100 nM saposin C
T1 sequence (P04062 40-536): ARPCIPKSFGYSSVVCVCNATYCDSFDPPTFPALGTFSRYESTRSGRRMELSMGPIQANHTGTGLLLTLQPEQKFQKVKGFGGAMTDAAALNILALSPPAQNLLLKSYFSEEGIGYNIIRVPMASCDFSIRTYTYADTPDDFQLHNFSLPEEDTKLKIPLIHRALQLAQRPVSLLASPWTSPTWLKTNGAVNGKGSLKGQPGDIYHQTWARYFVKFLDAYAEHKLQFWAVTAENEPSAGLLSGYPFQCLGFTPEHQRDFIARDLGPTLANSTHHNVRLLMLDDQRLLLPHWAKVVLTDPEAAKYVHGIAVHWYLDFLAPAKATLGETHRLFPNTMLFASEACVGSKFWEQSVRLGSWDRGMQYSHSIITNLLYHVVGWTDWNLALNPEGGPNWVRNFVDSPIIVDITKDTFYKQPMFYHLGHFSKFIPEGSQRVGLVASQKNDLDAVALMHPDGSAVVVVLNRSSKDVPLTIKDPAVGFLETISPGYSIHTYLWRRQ
Assay: Glucocerebrosidase (Gcase) activation assay with 4-methylumbelliferyl-beta-D-glucopyranoside substrate, saposin C and phosphatidylserine/triton micelles, fluorescence readout
Type: biochemical
How it was run: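 Fluorescence (ex 365 nm, em 440 nm) read after glycine pH 12.5 stop of a 15 min room-temperature reaction. GCase 10 nM plus saposin C 100 nM in PS/triton micelles, pH 4.7, preincubated 30 min with compound; substrate solution held 2 mM 4-MU-beta-glucoside. Screened at 1.0 and 0.1 μM; 8-point, 3-fold curves from 5 μM top.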

Percent Gcase Activation, 0.1 μM Test Compound (test compound at 0.1 μM) | Percent Gcase Activation, 1 μM Test Compound (test compound at 1.0 μM) | Percent Gcase Activation, 0.1 μM Test Compound (0.1 μM test compound) | Percent Gcase Activation, 1 μM Test Compound (1 μM test compound) | SMILES | also measured
*** (greater than 20% Gcase activation) | +++ (Gcase activation greater than 60%) |  |  | Cc1cc(-c2cccc(F)c2)nc2c(C(=O)N[C@H](C)C3CC3)cnn12 [III-92] | 
 |  | *** (greater than 20% Gcase activation) | +++ (Gcase activation greater than 60%) | Cc1cc(-c2ccns2)nc2c(C(=O)NC(C3CC3)C(F)(F)F)cnn12 (centres unmarked) [III-411] | 
*** (greater than 20% Gcase activation) | +++ (Gcase activation greater than 60%) |  |  | Cc1cc(-c2cc(F)ccn2)nc2c(C(=O)NC(C3CC3)C(F)(F)F)cnn12 (centres unmarked) [III-205] | 
 |  | *** (greater than 20% Gcase activation) | +++ (Gcase activation greater than 60%) | Cc1cc(-c2cncc(C(F)(F)F)c2)nc2c(C(=O)N[C@@H](C)C(F)(F)F)cnn12 [III-287] | 
 |  | *** (greater than 20% Gcase activation) | +++ (Gcase activation greater than 60%) | Cc1nscc1-c1cc(C)n2ncc(C(=O)N[C@@H](C3CC3)C(F)(F)F)c2n1 [III-390] | 
 |  | *** (greater than 20% Gcase activation) | +++ (Gcase activation greater than 60%) | Cc1cc(-c2cncc(Cl)c2)nc2c(C(=O)N[C@@H](C)C3CC3)cnn12 [III-290] | 

The remaining lines, values behind:

SMILES | Percent Gcase Activation, 0.1 μM Test Compound (test compound at 0.1 μM) | Percent Gcase Activation, 1 μM Test Compound (test compound at 1.0 μM) | Percent Gcase Activation, 0.1 μM Test Compound (0.1 μM test compound) | Percent Gcase Activation, 1 μM Test Compound (1 μM test compound) | also measured
Cc1cc(N2CCC(F)(F)CC2)nc2c(C(=O)NC(C)C(F)(F)F)cnn12 (centres unmarked) [III-181] | * (less than 10% Gcase activation) | +++ (Gcase activation greater than 60%) |  |  | 
Cc1cc(-c2ccccc2C#N)nc2c(C(=O)N[C@@H](C)C(F)(F)F)cnn12 [III-213] | *** (greater than 20% Gcase activation) | +++ (Gcase activation greater than 60%) |  |  | 
Cc1cc(-c2ccc(F)cc2C#N)nc2c(C(=O)NC(C3CC3)C(F)(F)F)cnn12 (centres unmarked) [III-151] | *** (greater than 20% Gcase activation) | +++ (Gcase activation greater than 60%) |  |  | 
CCCO[C@H]1CC[C@H](NC(=O)c2cnn3c(C)cc(-c4cccnc4)nc23)CC1 [III-40] |  |  |  |  | Percent Gcase Activation, 0.1 μM Test Compound (0.1 μM test compound, Table 3A): * (less than 10% Gcase activation); Percent Gcase Activation, 1 μM Test Compound (1 μM test compound, Table 3A): + (less than 30% Gcase activation)
COCOc1cccc(-c2cc(C)n3ncc(C(=O)N[C@@H](C4CC4)C(F)(F)F)c3n2)n1 [III-384] |  |  | ** (Gcase activation in the range of 10% up to 20%) | +++ (Gcase activation greater than 60%) | 
Cc1cc(C#N)c(-c2cc(C)n3ncc(C(=O)NC(C4CC4)C(F)(F)F)c3n2)o1 (centres unmarked) [III-245] | * (less than 10% Gcase activation) | + (less than 30% Gcase activation) |  |  | 
Cc1cc(-c2ccc(F)cc2C#N)nc2c(C(=O)N[C@H](C)C(F)(F)F)cnn12 [III-155] | * (less than 10% Gcase activation) | ++ (Gcase activation in the range of 30% up to 60%) |  |  | 
Cc1cc(N2CCC(F)(F)C2)nc2c(C(=O)NC(C)C(F)(F)F)cnn12 (centres unmarked) [III-180] | ** (Gcase activation in the range of 10% up to 20%) | +++ (Gcase activation greater than 60%) |  |  | 
Cc1cc(-c2cccc(-c3ncncn3)c2)nc2c(C(=O)NC(C3CC3)C(F)(F)F)cnn12 (centres unmarked) [III-177] | *** (greater than 20% Gcase activation) | +++ (Gcase activation greater than 60%) |  |  | 
Cc1cc(-c2cccc3ncoc23)nc2c(C(=O)NC(C)(C)C3CC3)cnn12 [III-223] | *** (greater than 20% Gcase activation) | +++ (Gcase activation greater than 60%) |  |  | 

From patent publication US10934298B2, “Substituted pyrazolo[1,5-a]pyrimidines for the treatment of medical disorders” (BIAL—BioTech Investments, Inc., priority 2016, dated 2021)
